Calls of active or inactive are those of the source. The calls are words filed in the database; no cut-off is given here.
Tests used:
[1] = Half life in Sprague-Dawley rat at 100 mg/kg, ip measured up to 24 hrs by LC-MS analysis; format: ADME, organism-based; details: in vivo
[2] = Drug concentration in Sprague-Dawley rat plasma at 100 mg/kg, ip measured 6 hrs post administration by LC-MS analysis; format: ADME, organism-based
[3] = Toxicity in Sprague-Dawley rat inoculated with C6 cells assessed as reduction in body weight at 100 mg/kg, ip bid administered for 14 days; format: organism-based; details: in vivo, 336 h, time 14 day
[4] = target: T1, Prostaglandin G/H synthase 2 (Homo sapiens) (UniProt P35354); assay: Inhibition of COX-2 in human U-87 MG cells assessed as inhibition of PGE2 production measured after 72 hrs; format: cell-based
T1 sequence (whole entry): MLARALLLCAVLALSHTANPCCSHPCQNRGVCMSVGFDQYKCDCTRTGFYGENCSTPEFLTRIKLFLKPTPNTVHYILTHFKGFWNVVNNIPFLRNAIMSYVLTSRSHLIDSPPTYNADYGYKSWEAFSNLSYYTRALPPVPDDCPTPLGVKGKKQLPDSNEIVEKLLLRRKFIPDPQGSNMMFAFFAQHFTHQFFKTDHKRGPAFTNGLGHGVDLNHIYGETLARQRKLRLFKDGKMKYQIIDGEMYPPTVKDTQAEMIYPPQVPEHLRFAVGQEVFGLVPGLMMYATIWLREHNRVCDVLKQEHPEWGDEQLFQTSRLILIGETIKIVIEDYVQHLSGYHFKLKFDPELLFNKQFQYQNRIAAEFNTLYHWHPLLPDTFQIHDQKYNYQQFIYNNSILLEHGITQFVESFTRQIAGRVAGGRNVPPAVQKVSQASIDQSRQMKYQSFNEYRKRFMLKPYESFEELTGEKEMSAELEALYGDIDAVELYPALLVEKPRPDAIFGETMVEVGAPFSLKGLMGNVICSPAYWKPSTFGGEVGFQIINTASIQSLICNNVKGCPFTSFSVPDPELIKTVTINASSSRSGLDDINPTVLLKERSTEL

Rattus norvegicus [5] = assay: In vivo inhibition of STAT3 activation in ip dosed orthotopic Sprague-Dawley rat model inoculated with C6 cells assessed as decrease in p-STAT3 in tumor tissue by Western blot analysis; format: functional, organism-based
Rattus norvegicus [6] = species on record: Rattus norvegicus; assay: Downregulation of MMP-9 protein expression in Sprague-Dawley rat orthotopic model inoculated with C6 cells by Western blot analysis; format: functional
Rattus norvegicus [7] = species on record: Rattus norvegicus; assay: Upregulation of E-cadherin protein expression in Sprague-Dawley rat orthotopic model inoculated with C6 cells by Western blot analysis; format: functional
U-87 MG [8] = assay: Antitumor activity against human U-87 MG cells xenografted in BALB/c nude mouse assessed as tumor growth inhibition at 20 mg/kg, ip bid measured every 3 days for 25 days relative to control; format: functional, U-87MG ATCC; details: 600 h, time 25 day, read-out: TGI
[9] = Acute toxicity in Kunming mouse assessed as death at 300 mg/kg, ip administered as single dose observed every day for 14 days; format: organism-based; details: in vivo, 336 h, time 14 day
U-87 MG [10] = assay: Antitumor activity against human U-87 MG cells xenografted in BALB/c nude mouse assessed as reduction in tumor weight at 20 mg/kg, ip bid measured every 3 days for 25 days; format: functional, organism-based; details: U-87MG ATCC, time 25.0 day
U-87 MG [11] = assay: Antitumor activity against human U-87 MG cells xenografted in BALB/c nude mouse assessed as reduction in Ki67 expression in tumor at 20 mg/kg, ip bid measured every 3 days for 25 days by immunohistochemical analysis; format: functional, organism-based; details: U-87MG ATCC, time 25.0 day
[12] = Toxicity in BALB/c mouse xenografted with human U-87 MG cells assessed as reduction in body weight at 20 mg/kg, ip bid measured after 25 days; format: organism-based; details: in vivo, 600 h, time 25 day

In the case of `Cc1c(Cl)cccc1Nc1ccccc1C(=O)Nc1ccc2c(c1)OCO2`, the half-life [1] was 8.36 h, the concentration at 6 h [2] was 4990 ng/mL and the Activity [3] was “Non-Toxic”. The inhibition [4] was “Active”.

For `COc1ccc(NC(=O)c2ccccc2Nc2cccc(Cl)c2C)cc1`, the half-life [1] was 6.7 h, the concentration at 6 h [2] was 5790 ng/mL and the Activity [3] was “Non-Toxic”. For the same compound, the inhibition (Rattus norvegicus [5]) was “Active”, the Activity (Rattus norvegicus [6]) was “Active” and the Activity (Rattus norvegicus [7]) was “Active”. The inhibition in vivo at 20 mg/kg (U-87 MG [8]) was 69.4%, the inhibition [4] was “Active” and the Activity [9] was “Non-Toxic”. The Activity (U-87 MG [10]) was “Active”, the Activity (U-87 MG [11]) was “Active” and the Activity [12] was “Non-Toxic”.
